We go through 19 molecules from patent US9115169B2, “Method of treating tumors” (Lytix Biopharma AS, priority 2000, dated 2015).

Converted amounts (≈) assume the structure as drawn. “And” between values parts separate entries of the source, which are not always exact repeats. Equal values may be shown once. Read-outs that look alike come from different tables or passages of the source. Where a SMILES comes first, the peptide text is derived from it. Where no end group is shown, it is not given here. [ ]: non-standard residue; d: D form. The star is where a group is joined. Trp(2-Pmc) = Cc1c(C)c(S(=O)(=O)c2[nH]c3ccccc3c2C[C@H](N)C(=O)O)c(C)c2c1OC(C)(C)CC2; Bip = N[C@@H](Cc1ccc(-c2ccccc2)cc1)C(=O)O; OBn = c1ccc(CO*)cc1

Assay [1] has as its system Escherichia coli ATCC 25922. Particulars: ATCC 25922.
The test system of assay [2] is Escherichia coli ATCC 25922.
A further assay concerns MRSE ATCC 27626. As to conditions: ATCC 27626.
Assay [3] has as its system Staphylococcus aureus ATCC 25923.

For `N=C(N)NCCC[C@H](NC(=O)[C@H](CCCNC(=N)N)NC(=O)[C@@H](N)CCCNC(=N)N)C(=O)N[C@@H](Cc1c[nH]c2ccccc12)C(=O)N[C@@H](Cc1c[nH]c2ccccc12)C(=O)N[C@@H](Cc1c[nH]c2ccccc12)C(N)=O` [RRRWWW] (H-RRRWWW-NH2), the “MBC E. coli” value in assay [1] turned out to be 20 µg/mL (≈ 19.2 µM).

Turning to `N=C(N)NCCC[C@H](NC(=O)[C@H](Cc1c[nH]c2ccccc12)NC(=O)[C@@H](N)CCCNC(=N)N)C(=O)N[C@@H](Cc1c[nH]c2ccccc12)C(=O)OCc1ccccc1` [RWRW-OBzl] (H-RWRW-OBn), the “MIC E. coli” value in assay [2] (ATCC 25922) amounted to 100 µg/mL (≈ 126 µM). In addition, the “MIC MRSE” value with MRSE ATCC 27626 was determined as 2.5 µg/mL (≈ 3.15 µM).

Take `N=C(N)NCCC[C@H](N)C(=O)N[C@@H](Cc1c[nH]c2ccccc12)C(=O)N[C@H](CCCNC(=N)N)C(=O)N[C@H](Cc1c[nH]c2ccccc12)C(=O)OCc1ccccc1` [RWrw-OBzl] (H-RW[dR][dW]-OBn): the “MIC MRSE” value against MRSE ATCC 27626 was determined as 2.5 µg/mL (≈ 3.15 µM). The “MIC S. aureus” value in assay [3] (ATCC 25923) was 5 µg/mL (≈ 6.31 µM).

As for `N=C(N)NCCC[C@H](NC(=O)[C@H](CCCNC(=N)N)NC(=O)[C@H](Cc1ccc(-c2ccccc2)cc1)NC(=O)[C@@H](N)Cc1c[nH]c2ccccc12)C(N)=O` [WBRR-NH2] (H-W[Bip]RR-NH2; N-terminus assumed), the “MIC E. coli” value in assay [2] (ATCC 25922) was more than 100 µg/mL; in assay [2] (Table 8, second column), 135.3 μM/ml. For the same molecule, the “MIC S. aureus” value in assay [3] (ATCC 25923) was 20 µg/mL (≈ 27.1 µM); in assay [3] (Table 8, second column), 27.1 μM/ml.

On to `C[C@H](NC(=O)[C@H](C)NC(=O)[C@H](CCCNC(=N)N)NC(=O)[C@H](CCCNC(=N)N)NC(=O)[C@H](Cc1ccc(-c2ccccc2)cc1)NC(=O)[C@@H](N)Cc1c[nH]c2ccccc12)C(N)=O` [WBRRAA-NH2] (H-W[Bip]RRAA-NH2; N-terminus assumed), for which the “MIC E. coli” value in assay [2] (ATCC 25922) is more than 300 µg/mL; in assay [2] (Table 8, second column) it was 340.5 μM/ml. The “MIC S. aureus” value came to 75 µg/mL (≈ 85.1 µM) in assay [3] (ATCC 25923) and 85.1 μM/ml in assay [3] (Table 8, second column).

On to `C[C@H](NC(=O)[C@H](C)NC(=O)[C@H](CCCNC(=N)N)NC(=O)[C@@H](N)Cc1c[nH]c2ccccc12)C(=O)N[C@@H](Cc1ccc(-c2ccccc2)cc1)C(=O)N[C@@H](CCCNC(=N)N)C(N)=O` [WRAABR-NH2] (H-WRAA[Bip]R-NH2; N-terminus assumed), for which the “MIC E. coli” value in assay [2] (ATCC 25922) stood at 150 µg/mL (≈ 170 µM); in assay [2] (Table 8, second column), 170.2 μM/ml. In addition, the “MIC S. aureus” value came out at 35 µg/mL (≈ 39.7 µM) in assay [3] (ATCC 25923) and 39.7 μM/ml in assay [3] (Table 8, second column).

Regarding `C[C@H](NC(=O)[C@H](C)NC(=O)[C@H](CCCNC(=N)N)NC(=O)[C@@H](N)Cc1c[nH]c2ccccc12)C(=O)N[C@@H](Cc1c[nH]c2ccccc12)C(=O)N[C@@H](CCCNC(=N)N)C(N)=O` [WRAAWR-NH2] (H-WRAAWR-NH2; N-terminus assumed), the “MIC E. coli” value is more than 200 µg/mL in assay [2] (ATCC 25922) and 237.0 μM/ml in assay [2] (Table 8, second column). The “MIC S. aureus” value in assay [3] (ATCC 25923) is more than 200 µg/mL; in assay [3] (Table 8, second column), 237.0 μM/ml.

Consider `Cc1c(C)c(S(=O)(=O)c2[nH]c3ccccc3c2C[C@H](N)C(=O)N[C@@H](CCCNC(=N)N)C(=O)N[C@@H](Cc2ccc(-c3ccccc3)cc2)C(=O)N[C@@H](CCCNC(=N)N)C(=O)N[C@@H](C)C(=O)N[C@@H](C)C(N)=O)c(C)c2c1OC(C)(C)CC2` [WRBRAA-NH2 Pmc+] (H-[Trp(2-Pmc)]R[Bip]RAA-NH2; N-terminus assumed), for which the “MIC E. coli” value in assay [2] (Table 8, second column) turned out to be 13.1 μM/ml. Moreover, the “MIC S. aureus” value in assay [3] (Table 8, second column) was determined as 4.4 μM/ml.

For `C[C@H](NC(=O)[C@H](C)NC(=O)[C@H](CCCNC(=N)N)NC(=O)[C@H](Cc1ccc(-c2ccccc2)cc1)NC(=O)[C@H](CCCNC(=N)N)NC(=O)[C@@H](N)Cc1c[nH]c2ccccc12)C(N)=O` [WRBRAA-NH2] (H-WR[Bip]RAA-NH2; N-terminus assumed), the “MIC E. coli” value in assay [2] (ATCC 25922) is 150 µg/mL (≈ 170 µM); in assay [2] (Table 8, second column) it was 170.2 μM/ml. For the same molecule, the “MIC S. aureus” value in assay [3] (ATCC 25923) was 35 µg/mL (≈ 39.7 µM); in assay [3] (Table 8, second column) it was 39.7 μM/ml.

For `C[C@H](NC(=O)[C@H](C)NC(=O)[C@H](Cc1c[nH]c2ccccc12)NC(=O)[C@@H](N)Cc1c[nH]c2ccccc12)C(=O)N[C@@H](CCCNC(=N)N)C(=O)N[C@@H](CCCNC(=N)N)C(N)=O` [WWAARR-NH2] (H-WWAARR-NH2; N-terminus assumed), the “MIC E. coli” value is more than 200 µg/mL in assay [2] (ATCC 25922) and 237.0 μM/ml in assay [2] (Table 8, second column). Further, the “MIC S. aureus” value in assay [3] (ATCC 25923) was more than 200 µg/mL; in assay [3] (Table 8, second column), 237.0 μM/ml.

Turning to `NCCCC[C@@H](N)C(=O)N[C@@H](Cc1c[nH]c2ccccc12)C(=O)OCc1ccccc1` [kW-OBzl] (H-[dK]-Trp-OBn), in assay [2] (ATCC 25922), the “MIC E. coli” value was more than 300 µg/mL and the “Minimum inhibitory concentration E. coli” value was more than 300 µg/mL. Besides, in assay [3] (ATCC 25923), the “MIC S. aureus” value turned out to be 100 µg/mL (≈ 237 µM) and the “Minimum inhibitory concentration S. aureus” value is 100 µg/mL (≈ 237 µM).

Regarding `N=C(N)NCCC[C@@H](N)C(=O)N[C@H](Cc1c[nH]c2ccccc12)C(=O)OCc1ccccc1` [rw-OBzl] (H-[dR]-[dW]-OBn), the “MIC E. coli” value in assay [2] (ATCC 25922) was more than 200 µg/mL. In addition, the “MIC MRSE” value in the assay with MRSE ATCC 27626 is 20 µg/mL (≈ 44.4 µM).

On to `N=C(N)NCCC[C@H](NC(=O)[C@H](N)Cc1c[nH]c2ccccc12)C(=O)N[C@@H](Cc1c[nH]c2ccccc12)C(=O)OCc1ccccc1` [wRW-OBzl] (H-[dW]-Arg-Trp-OBn), for which, in the assay with MRSE ATCC 27626, the “MIC MRSE” value is 10 µg/mL (≈ 15.7 µM). Moreover, in assay [3] (ATCC 25923), the “MIC S. aureus” value turned out to be 20 µg/mL (≈ 31.4 µM).

In the case of `N=C(N)NCCC[C@@H](NC(=O)[C@H](N)Cc1c[nH]c2ccccc12)C(=O)N[C@H](Cc1c[nH]c2ccccc12)C(=O)OCc1ccccc1` [wrw-OBzl] (H-[dW]-[dR]-[dW]-OBn), the “MIC MRSE” value in the assay with MRSE ATCC 27626 turned out to be 5 µg/mL (≈ 7.85 µM).

Turning to “AAWWRR-NH2 Pmc+: hexapeptide amide having the Pmc group (also: Pmc group, position not given here)”, the “MIC E. coli” value in assay [2] (Table 8, first column) was 20 µg/mL; in assay [2] (Table 8, second column), 18.0 μM/ml. The “MIC S. aureus” value in assay [3] (Table 8, first column) came to 2.5 µg/mL; in assay [3] (Table 8, second column) it was 2.3 μM/ml.

In the case of “AWRWRA-NH2 Pmc+: hexapeptide amide having the Pmc group (also: Pmc group, position not given here)”, the “MIC E. coli” value in assay [2] (Table 8, first column) stood at 20 µg/mL; in assay [2] (Table 8, second column), 18.0 μM/ml. In addition, the “MIC S. aureus” value in assay [3] (Table 8, first column) worked out at 2.5 µg/mL; in assay [3] (Table 8, second column) it was 2.3 μM/ml.

Consider “RRAAWW-NH2 Pmc+: hexapeptide amide having the Pmc group; label printed twice, second probably RRAAWB (also: Pmc group, position not given here)”, for which the “MIC E. coli” value in assay [2] (Table 8, first column) was 20 µg/mL; in assay [2] (Table 8, second column) it was 17.4 μM/ml and 18.0 μM/ml. Moreover, the “MIC S. aureus” value was 2.5 µg/mL in assay [3] (Table 8, first column); 2.2 μM/ml and 2.3 μM/ml in assay [3] (Table 8, second column).

For “WRAAWR-NH2 Pmc+: hexapeptide amide having the Pmc group (also: Pmc group, position not given here)”, the “MIC E. coli” value came out at 50 µg/mL in assay [2] (Table 8, first column) and 45.0 μM/ml in assay [2] (Table 8, second column). The “MIC S. aureus” value in assay [3] (Table 8, first column) came out at 2.5 µg/mL; in assay [3] (Table 8, second column), 2.3 μM/ml.

For the molecule “WWAARR-NH2 Pmc+: hexapeptide amide having the Pmc group (also: Pmc group, position not given here)”, the “MIC E. coli” value in assay [2] (Table 8, first column) came to 50 µg/mL; in assay [2] (Table 8, second column) it was 45.0 μM/ml. For the same molecule, the “MIC S. aureus” value in assay [3] (Table 8, first column) is 5 µg/mL; in assay [3] (Table 8, second column) it was 4.5 μM/ml.
